Test results reported in US9700509B2, “Solutions of lipophilic substances, especially medicinal solutions” (UNIVERSITÄT REGENSBURG, priority 2008, dated 2017).

Experiment: Dissolution in polyethylene glycol 400 (appearance of solution, microscope)
Type: physicochemical
Conditions: 20 mg phospholipid DHGPC in 1 ml polyethylene glycol 400, 21° C.
Source text: Polyethylene glycol 400 served as solvent. […] This was confirmed under a microscope.
Microscope images confirmed this.

CCCCCCC(=O)OC[C@H](COP(=O)([O-])OCC[N+](C)(C)C)OC(=O)CCCCCC [DHGPC, diheptanoyl glycerophosphocholine]
appearance of solution: clear solution
